# Reference: patent US10716778B2, “Use of compounds that are able to increase the serum IGF-1 level for the preparation of a therapeutical composition for treatment of various disease states associated with a reduced IGF-1 serum level in humans and animals” (VEIJLEN N.V., priority 2003, dated 2020)
# Where “and” joins values, the source holds several entries; their conditions need not be identical. Equal entries are not always repeated.
# Legend:
# Assay type in all cases: in vivo, human
# athletes = experiment: Performance and recovery of athletes (Example 6); conditions: group that received IAA; 12 weeks intensive training; placebo performances decreased
# Description: (§1) Twenty athletes entered the study. Other medication was excluded from the research. The period of the treatment was 12 weeks. They were not allowed to take any other medication or food supplements. They continued their level of training. After 2 weeks, the training was intensified by 25%. At baseline, at the start, after 2 weeks, 4 weeks, 6 weeks, 8 weeks, 10 weeks and 12 weeks, IGF-1 and safety parameters (liver tests, hematology) were determined. The group was divided into two groups of ten athletes. Group A received IAA; group B got a placebo.
# (§2) The following schedule was used for the supplements. 1 IAA capsule contained 10 mg IAA, 100 mg NaCl, 140 mg WPC 70. One Glutamine capsule contained 500 mg glutamine. The amino acids that were taken are as described in Table 1.
# type 2 diabetic patients = experiment: Well-being of type 2 diabetic patients after treatment (Example 4); conditions: type 2 diabetes patients
# From the text: (§3) Five male type 2 diabetic patients took part in the study. They were all very difficult to regulate. When the study started, the average HbA1c was to be approximately 9.0%. The patients had no other clinical problems. In addition, the IgF-BP3/IgF-1 ratio had to be over 10. The age of the subjects were between 45 years and 75 years with an average of 58. The period of the investigation was 6 months. At the start of the study, after 2 month, 4 months and at the end at 6 months, blood was taken. The following parameters were checked: IGF-1 and IGF-PB-3. Also, at the start, safety parameters (liver tests, hematology) were determined. Every 8 weeks, HbA1c was determined.
# IGF-1 [1] = experiment: IgF-1 level in athletes with intensive training taking IAA or placebo (Example 6); conditions: group A
# Description: as §1
# All samples from one subject were analyzed in the same run to avoid intra-assay variability. GH was assayed with a chemiluminescence kit (Nichols Institute Diagnostics, San Juan Capistrano, Calif., USA). Quantification of IGF-1 was performed using an immunoradiometric assay (IRMA) (DSL-5600 ACTIVE, DSL, Germany GmbH, Germany). Intra- and inter-assay variance was: 4.0% and 9.2% for GH; 3.0% and 1.5% for IGF-1.
# The total work output of every subject was calculated with a two-way ANOVA for repeated measures and the hormone values were analyzed with the Wilcoxon test. In all cases, 1 p value of <0.05 was accepted as significant.
# as §2
# HbA1c = HbA1c in type 2 diabetic patients during medication with IAA (Example 4); conditions: for HbA1c: acetic acid
# From the text: as §3
# All samples from one subject were analyzed in the same run to avoid intra-assay variability. Quantification of IGF-1 was performed using an immunoradiometric assay (IRMA) (DSL-5600 ACTIVE™, DSL, Germany GmbH, Germany). Intra- and inter-assay variance was: 4.0% and 9.2% and 1.5% for IGF-1. The Hba1c was analyzed on HPLC Menarine HA 81-60.
# The total work output of every subject was calculated with a 2-way ANOVA for repeated measures and the hormone values were analyzed with the Wilcoxon test. In all cases, a p value of <0.05 was accepted as significant.
# IGF-1 [2] = experiment: Plasma IGF-1 level in eight CFS patients treated with the composition (Example 1)
# Description: Eight patients suffering from severe chronic fatigue syndrome (CFS) were studied over a 5- to 7-month period. In this period, they were treated with a therapeutical composition of the disclosure in the form of a food supplement, which comprised IAA as the active ingredient. All subjects were unable to do their job or to perform very light physical exercise.
# Before entering the study, the subjects underwent a careful medical examination to exclude any other disease. Blood was assayed for insulin-like growth factor 1 (IGF-1) and its major binding protein IGF-BP3 was sampled at 0, 1, 3 and 5 to 7 months of treatment because the total amount of IGF-1 in serum minus the amount of IGF-BP3 is the amount of free IGF-1. Free IGF-1 is the active serum fraction. Also at 0, 1, 3 and 5 to 7 months, job participation and physical activities were registered and calculated as percentage of normal, before disease pattern.
# Eight women varying in age from 25 to 53 years having severe complaints of fatigue that made it impossible to function normally, both at work and in free time. All reported an excessive need for sleep, which was never refreshing even though it was prolonged (more than 12 hours). After excluding all other diseases and infections, they were all diagnosed for CFS.
# Blood samples of 20 ml were taken and liver and kidney functions, the red and white hemogram, IGF-1 and IGF-BP3 determined. The patients took 1000 mg/day (corresponding to 40 mg IAA and 960 mg salt and WPC 70) of the composition of the disclosure for 4 weeks. After this, the dosage was reduced by 250 mg (corresponding to 10 mg IAA) every 2 weeks to 750 mg/day, 500 mg/day 250 mg/day, respectively. […]
# At the start of the study and at each check-up point, the work participation and physical activity pattern were scored on a scale from 1 to 10 and plotted as the percentage of the patient's normal activities. […] IGF-BP3 was determined by means of an immunoassay (DSL-5600 ACTIVE™, DSL Deutschland GmbH, Germany) having an intra-assay variance of 4.4% and an inter-assay variance of 6.6%. […]
substance,measurement,setting,value
indole acetic acid [IAA],performance of athletes at the end,athletes,performed better
same,how the patients felt after the treatment,type 2 diabetic patients,felt better
same,increase of IgF-1 level,"IGF-1 [1]; over a period of 8 weeks (so in the source), statistically significant",ca. 47.7%
same,"IgF-1 level, average test group","IGF-1 [1]; time point 0 (start), blood taken every 2 weeks over 12 weeks",27.9 nmol/L
same,"IgF-1 level, average test group",IGF-1 [1]; time point 1,35.8 nmol/L
same,"IgF-1 level, average test group",IGF-1 [1]; time point 2,38.9 nmol/L
same,"IgF-1 level, average test group",IGF-1 [1]; time point 3,42.5 nmol/L
same,"IgF-1 level, average test group",IGF-1 [1]; time point 4,41.7 nmol/L
same,"IgF-1 level, average test group",IGF-1 [1]; time point 5,41.4 nmol/L
same,"IgF-1 level, average test group",IGF-1 [1]; time point 6 (end of the study),41.2 nmol/L
same,"HbA1c, average","HbA1c; Week 0 (start), average of 5 subjects",9.0%
same,HbA1c,"HbA1c; Week 0 (start), individual subjects",9.6% and 9.0% and 9.1% and 8.6% and 8.8%
same,"HbA1c, average","HbA1c; Week 8, average of 5 subjects",8.3%
same,HbA1c,"HbA1c; Week 8, individual subjects",8.9% and 8.2% and 8.3% (2×) and 7.6%
same,"HbA1c, average","HbA1c; Week 16, average of 5 subjects",7.4%
same,HbA1c,"HbA1c; Week 16, individual subjects",8.0% and 7.1% and 7.4% and 6.9% and 7.6%
same,"HbA1c, average","HbA1c; Week 24, average of 5 subjects",6.7%
same,HbA1c,"HbA1c; Week 24, individual subjects",7.4% and 6.4% and 6.6% and 6.3% and 6.8%
same,plasma IGF-1 level (mean±SD),IGF-1 [2]; after 1 month,29.5 ± 8.2 nmol/L
same,plasma IGF-1 level (mean±SD),IGF-1 [2]; after 5 months of treatment,35 ± 10 nmol/L
same,plasma IGF-1 level (mean±SD),IGF-1 [2]; before treatment (baseline),18 ± 5 nmol/L
